Source: ChEMBL document CHEMBL3627608, “Crystal structures of human RIP2 kinase catalytic domain complexed with ATP-competitive inhibitors: Foundations for understanding inhibitor selectivity” (Bioorg Med Chem, 2015)

What was measured:
[1] = target: CDK2/Cyclin A1 (Homo sapiens) (UniProt P24941+P78396); experiment: Inhibition of CDK2/Cyclin A1 (unknown origin) at 10 uM after 120 mins P33 radiolabeled kinase activity assay; type: protein-complex assay
[2] = target: Dual specificity protein kinase CLK1 (Homo sapiens) (UniProt P49759); experiment: Inhibition of CLK1 (unknown origin) at 10 uM after 120 mins P33 radiolabeled kinase activity assay
[3] = target: Receptor-interacting serine/threonine-protein kinase 2 (Homo sapiens, UniProt O43353); experiment: Inhibition of full-length FLAG-6His-TEV tagged human RIP2 expressed in Sf9 cells by fluorescent polarization assay
[4] = target: T1, G protein-coupled receptor kinase 3 (Homo sapiens) (UniProt P35626); experiment: Inhibition of GRK3 (unknown origin) at 10 uM after 120 mins P33 radiolabeled kinase activity assay
T1 sequence (whole entry): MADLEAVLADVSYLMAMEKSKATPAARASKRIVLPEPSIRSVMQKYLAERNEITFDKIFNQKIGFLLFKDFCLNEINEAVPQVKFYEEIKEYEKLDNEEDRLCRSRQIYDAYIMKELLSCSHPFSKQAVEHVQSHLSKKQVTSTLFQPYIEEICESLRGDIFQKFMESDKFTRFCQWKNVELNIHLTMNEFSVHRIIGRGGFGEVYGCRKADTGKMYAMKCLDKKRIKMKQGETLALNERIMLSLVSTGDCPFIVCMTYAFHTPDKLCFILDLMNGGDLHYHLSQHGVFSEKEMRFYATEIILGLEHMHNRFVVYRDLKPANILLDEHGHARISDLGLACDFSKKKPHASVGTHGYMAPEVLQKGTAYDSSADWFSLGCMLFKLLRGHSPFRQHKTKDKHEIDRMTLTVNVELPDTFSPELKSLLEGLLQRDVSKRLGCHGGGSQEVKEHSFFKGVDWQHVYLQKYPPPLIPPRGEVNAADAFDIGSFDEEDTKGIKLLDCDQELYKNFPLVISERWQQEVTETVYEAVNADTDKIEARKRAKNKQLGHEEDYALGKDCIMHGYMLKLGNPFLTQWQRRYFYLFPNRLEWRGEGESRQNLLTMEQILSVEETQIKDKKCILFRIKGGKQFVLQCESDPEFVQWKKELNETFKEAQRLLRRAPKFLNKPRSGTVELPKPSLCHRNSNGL

[5] = target: SRSF protein kinase 2 (Homo sapiens) (UniProt P78362); experiment: Inhibition of SRPK2 (unknown origin) at 10 uM after 120 mins P33 radiolabeled kinase activity assay
[6] = target: T2, Serine/threonine-protein kinase ULK3 (Homo sapiens) (UniProt Q6PHR2); experiment: Inhibition of ULK3 (unknown origin) at 10 uM after 120 mins P33 radiolabeled kinase activity assay
T2 sequence (whole entry): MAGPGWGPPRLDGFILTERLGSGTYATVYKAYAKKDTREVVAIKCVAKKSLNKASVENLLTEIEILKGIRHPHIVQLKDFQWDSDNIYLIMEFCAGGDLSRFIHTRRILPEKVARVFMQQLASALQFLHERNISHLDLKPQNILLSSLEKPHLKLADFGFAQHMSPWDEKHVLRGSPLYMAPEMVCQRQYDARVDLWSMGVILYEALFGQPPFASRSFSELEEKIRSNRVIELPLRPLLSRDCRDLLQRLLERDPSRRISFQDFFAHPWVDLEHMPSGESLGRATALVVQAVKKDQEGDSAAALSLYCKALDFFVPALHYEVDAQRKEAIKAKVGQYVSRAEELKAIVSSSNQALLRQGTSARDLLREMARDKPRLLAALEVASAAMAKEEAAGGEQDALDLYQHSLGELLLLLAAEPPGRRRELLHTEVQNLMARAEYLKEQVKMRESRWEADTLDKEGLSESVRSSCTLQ

[7] = target: T3, Ephrin type-B receptor 1 (Homo sapiens) (UniProt P54762); experiment: Inhibition of EPHB1 (unknown origin) at 10 uM after 120 mins P33 radiolabeled kinase activity assay
T3 sequence (whole entry): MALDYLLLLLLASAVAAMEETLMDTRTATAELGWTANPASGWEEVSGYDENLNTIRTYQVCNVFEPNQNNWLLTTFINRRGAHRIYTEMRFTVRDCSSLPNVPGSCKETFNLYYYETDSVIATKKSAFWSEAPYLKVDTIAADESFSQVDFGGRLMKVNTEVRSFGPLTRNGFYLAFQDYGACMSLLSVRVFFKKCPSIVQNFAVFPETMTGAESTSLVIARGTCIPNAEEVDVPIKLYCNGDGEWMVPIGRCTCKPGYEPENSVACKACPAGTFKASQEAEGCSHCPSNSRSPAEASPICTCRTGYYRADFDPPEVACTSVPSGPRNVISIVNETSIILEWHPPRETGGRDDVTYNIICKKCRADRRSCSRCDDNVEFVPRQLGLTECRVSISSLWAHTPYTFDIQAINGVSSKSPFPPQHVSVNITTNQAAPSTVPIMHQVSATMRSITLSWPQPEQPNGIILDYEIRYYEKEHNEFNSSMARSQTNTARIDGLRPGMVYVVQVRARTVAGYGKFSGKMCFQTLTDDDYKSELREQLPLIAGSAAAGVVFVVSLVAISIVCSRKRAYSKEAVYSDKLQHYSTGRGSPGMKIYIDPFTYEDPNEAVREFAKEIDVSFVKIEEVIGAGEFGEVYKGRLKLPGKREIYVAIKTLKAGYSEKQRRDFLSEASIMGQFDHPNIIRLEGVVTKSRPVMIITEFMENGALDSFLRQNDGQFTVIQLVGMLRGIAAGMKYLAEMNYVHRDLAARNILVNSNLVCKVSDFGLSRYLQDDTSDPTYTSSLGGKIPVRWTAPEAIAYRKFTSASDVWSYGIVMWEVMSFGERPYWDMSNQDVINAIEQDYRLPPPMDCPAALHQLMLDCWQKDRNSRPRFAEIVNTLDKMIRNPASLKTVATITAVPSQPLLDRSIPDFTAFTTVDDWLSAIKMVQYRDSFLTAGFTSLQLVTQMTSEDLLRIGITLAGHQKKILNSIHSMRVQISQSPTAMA

[8] = target: T4, Dual specificity mitogen-activated protein kinase kinase 7 (Homo sapiens) (UniProt O14733); experiment: Inhibition of MKK7 (unknown origin) at 10 uM after 120 mins P33 radiolabeled kinase activity assay
T4 sequence (whole entry): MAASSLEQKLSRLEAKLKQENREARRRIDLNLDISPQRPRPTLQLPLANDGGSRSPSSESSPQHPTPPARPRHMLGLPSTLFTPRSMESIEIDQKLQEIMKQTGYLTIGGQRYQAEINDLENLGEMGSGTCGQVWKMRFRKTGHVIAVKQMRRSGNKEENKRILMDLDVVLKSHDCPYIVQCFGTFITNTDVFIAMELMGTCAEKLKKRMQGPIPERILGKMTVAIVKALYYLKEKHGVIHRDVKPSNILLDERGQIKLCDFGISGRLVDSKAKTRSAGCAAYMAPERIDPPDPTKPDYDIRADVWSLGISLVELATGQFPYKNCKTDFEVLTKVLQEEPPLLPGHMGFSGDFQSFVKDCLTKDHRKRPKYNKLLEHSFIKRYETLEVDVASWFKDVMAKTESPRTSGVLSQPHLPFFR

Chain of Receptor-interacting serine/threonine-protein kinase 2 (O43353 whole entry): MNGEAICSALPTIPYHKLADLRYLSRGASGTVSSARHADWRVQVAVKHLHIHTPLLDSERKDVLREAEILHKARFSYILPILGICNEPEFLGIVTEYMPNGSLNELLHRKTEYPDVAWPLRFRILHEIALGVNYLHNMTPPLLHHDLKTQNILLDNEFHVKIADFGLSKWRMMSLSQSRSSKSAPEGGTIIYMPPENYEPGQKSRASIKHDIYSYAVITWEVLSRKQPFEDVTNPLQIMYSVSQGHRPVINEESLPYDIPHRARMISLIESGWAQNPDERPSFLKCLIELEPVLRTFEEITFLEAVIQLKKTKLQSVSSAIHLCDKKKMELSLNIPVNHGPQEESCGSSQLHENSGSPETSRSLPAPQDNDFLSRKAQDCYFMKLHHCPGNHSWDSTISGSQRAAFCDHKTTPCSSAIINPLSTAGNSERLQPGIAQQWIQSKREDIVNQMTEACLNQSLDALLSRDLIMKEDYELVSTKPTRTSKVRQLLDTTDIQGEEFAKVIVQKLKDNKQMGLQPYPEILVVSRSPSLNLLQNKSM
Chain of SRSF protein kinase 2 (Homo sapiens) (P78362 whole entry, looked up): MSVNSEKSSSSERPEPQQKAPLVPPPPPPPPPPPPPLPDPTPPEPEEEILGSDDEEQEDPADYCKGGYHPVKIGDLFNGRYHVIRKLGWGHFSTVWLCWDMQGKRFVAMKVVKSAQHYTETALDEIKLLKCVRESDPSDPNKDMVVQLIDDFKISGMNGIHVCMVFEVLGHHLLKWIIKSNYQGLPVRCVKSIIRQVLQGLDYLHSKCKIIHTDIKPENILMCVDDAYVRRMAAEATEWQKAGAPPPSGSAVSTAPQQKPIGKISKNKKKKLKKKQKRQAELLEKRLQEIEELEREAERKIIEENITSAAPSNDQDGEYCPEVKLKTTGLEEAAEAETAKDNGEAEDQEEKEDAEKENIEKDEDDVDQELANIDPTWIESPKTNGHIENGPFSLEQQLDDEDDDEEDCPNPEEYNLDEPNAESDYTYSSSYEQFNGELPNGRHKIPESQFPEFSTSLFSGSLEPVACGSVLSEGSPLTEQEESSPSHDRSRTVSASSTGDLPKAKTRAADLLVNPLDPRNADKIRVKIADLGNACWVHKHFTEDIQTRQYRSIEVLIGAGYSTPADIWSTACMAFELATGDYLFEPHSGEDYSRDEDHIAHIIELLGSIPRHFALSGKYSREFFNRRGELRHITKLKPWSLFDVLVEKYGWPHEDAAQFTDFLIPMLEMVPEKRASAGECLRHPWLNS
Chain of Dual specificity protein kinase CLK1 (Homo sapiens) (P49759 whole entry, looked up): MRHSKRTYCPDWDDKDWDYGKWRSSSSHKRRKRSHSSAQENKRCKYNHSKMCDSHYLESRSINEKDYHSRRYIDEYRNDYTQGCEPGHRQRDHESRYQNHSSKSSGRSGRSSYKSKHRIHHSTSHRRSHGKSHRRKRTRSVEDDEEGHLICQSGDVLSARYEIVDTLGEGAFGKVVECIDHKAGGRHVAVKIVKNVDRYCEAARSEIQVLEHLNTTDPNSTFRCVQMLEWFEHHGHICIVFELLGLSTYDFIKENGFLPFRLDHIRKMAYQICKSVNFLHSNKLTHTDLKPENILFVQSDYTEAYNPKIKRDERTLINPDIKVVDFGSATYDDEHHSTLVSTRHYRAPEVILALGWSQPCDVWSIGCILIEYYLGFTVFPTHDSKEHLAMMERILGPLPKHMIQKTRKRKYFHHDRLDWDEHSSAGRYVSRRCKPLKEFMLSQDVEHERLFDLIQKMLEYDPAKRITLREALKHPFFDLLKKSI

inhibition [1]	inhibition [2]	IC50 [3]	inhibition [4]	inhibition [5]	inhibition [6]	inhibition [7]	inhibition [8]	SMILES
43.5%	14.1%	7.9 nM	-3.43%	17.7%	89.6%	78.7%	7.17%	CS(=O)(=O)c1cccc(Nc2nccc(-c3sc(N4CCOCC4)nc3-c3cccc(NS(=O)(=O)c4c(F)cccc4F)c3)n2)c1
18.1%	13.4%	500 nM	-0.61%	7.04%	-5.07%	12.3%	2%	COCCNC(=O)c1ccc2c(c1)nc(-c1cnc(-c3ccc(Cl)cc3)[nH]1)n2CCOC
51.4%	50.7%	320 nM	-2.07%	18%	31.7%	93.2%	22.7%	CC(C)(C)c1cc(NC(=O)Nc2ccc(Oc3ccncc3)cc2)no1
